Active and inactive are the calls of the source. No cut-off for these calls is given here.
What was measured:
Rattus norvegicus [1] = species: Rattus norvegicus; settings: in vivo, po, 3 mg/kg
[2] = Mean residence time in 30 months-old Lister Hooded rat at 1 mg/kg, iv infusion for 1 hr; settings: in vivo
in vivo [3] = settings: Lister Hooded, rat, po, 3 mg/kg
in vivo [4] = settings: Lister Hooded, rat, po, 3 mg/kg; remark: listed apart in the source
in vivo [5] = settings: Lister Hooded, rat, po, 3 mg/kg; remark: listed apart in the source
[6] = Ratio of brain to blood in 7 months-old Lister Hooded rat blood at 3 mg/kg, po after 1 hr treatment
in vivo [7] = settings: Lister Hooded, rat, brain, po, 3 mg/kg
Description: Ratio of brain to blood in 30 months-old Lister Hooded rat blood at 3 mg/kg, po after 1 hr treatment

Rattus norvegicus [8] = species: Rattus norvegicus; settings: in vivo, iv, 1 mg/kg, 1 h
[9] = Volume of distribution in 30 months-old Lister Hooded rat at 1 mg/kg, iv infusion for 1 hr; settings: in vivo
Rattus norvegicus [10] = experiment: Inhibition of cholinesterase activity in 30 months-old Lister Hooded rat plasma assessed as percent enhancement of inhibition at 3 mg/kg, po after 1 hr treatment; type: organism-based; set-up: dose 3 mg/kg; scale not given: the % may be the effect or the level left
Rattus norvegicus [11] = experiment: Inhibition of cholinesterase activity in 7 months-old Lister Hooded rat plasma at 3 mg/kg, po after 1 hr treatment; type: organism-based; set-up: dose 3 mg/kg
[12] = Mean residence time in 7 months-old Lister Hooded rat at 1 mg/kg, iv infusion for 1 hr; settings: in vivo
in vivo [13] = settings: Lister Hooded, rat, iv, 1 mg/kg
in vivo [14] = settings: Lister Hooded, rat, iv, 1 mg/kg; remark: listed apart in the source
Rattus norvegicus [15] = species: Rattus norvegicus; settings: in vivo, po, 3 mg/kg; remark: listed apart in the source
in vivo [16] = settings: Lister Hooded, rat, po, 3 mg/kg; remark: listed apart in the source
[17] = Oral bioavailability in human at 2 mg single dose; settings: in vivo
Rattus norvegicus [18] = species: Rattus norvegicus; settings: in vivo, iv, 1 mg/kg, 1 h; remark: listed apart in the source
[19] = Half life in 7 months-old Lister Hooded rat at 1 mg/kg, iv infusion for 1 hr; settings: in vivo
in vivo [20] = settings: Lister Hooded, rat, iv, 1 mg/kg; remark: listed apart in the source
in vivo [21] = settings: Lister Hooded, rat, po, 3 mg/kg; remark: listed apart in the source
Rattus norvegicus [22] = species: Rattus norvegicus; settings: in vivo, iv, 1 mg/kg, 1 h; remark: listed apart in the source
[23] = Drug excretion in human urine assessed as unchanged drug level at 2 mg, po single dose; type: ADME, organism-based; settings: read-out: Drug excretion
Rattus norvegicus [24] = species: Rattus norvegicus; settings: in vivo, po, 3 mg/kg; remark: listed apart in the source
Rattus norvegicus [25] = species: Rattus norvegicus; settings: in vivo, po, 3 mg/kg; remark: listed apart in the source
[26] = Half life in human at 2 mg, po single dose; settings: in vivo
[27] = Half life in 30 months-old Lister Hooded rat at 1 mg/kg, iv infusion for 1 hr; settings: in vivo
[28] = Volume of distribution in 7 months-old Lister Hooded rat at 1 mg/kg, iv infusion for 1 hr; settings: in vivo
Homo sapiens = experiment: Volume of distribution in human at 2 mg, po single dose; settings: in vivo
in vivo [29] = settings: Lister Hooded, rat, po, 3 mg/kg; remark: listed apart in the source
in vivo [30] = settings: Lister Hooded, rat, iv, 1 mg/kg; remark: listed apart in the source
[31] = Tmax in human at 2 mg, po single dose; settings: in vivo
[32] = Clearance in human at 2 mg, po single dose; settings: in vivo
[33] = Drug uptake in 7 months-old Lister Hooded rat assessed as corrected brain concentration at 3 mg/kg, po after 1 hr treatment; settings: in vivo
Rattus norvegicus [34] = species: Rattus norvegicus; settings: in vivo, iv, 1 mg/kg, 1 h; remark: listed apart in the source
[35] = Drug uptake in 30 months-old Lister Hooded rat assessed as corrected brain concentration at 3 mg/kg, po after 1 hr treatment; settings: in vivo
[36] = Drug uptake in 7 months-old Lister Hooded rat blood at 3 mg/kg, po after 1 hr treatment; settings: in vivo
[37] = Drug uptake in 30 months-old Lister Hooded rat blood at 3 mg/kg, po after 1 hr treatment; settings: in vivo
[38] = Drug excretion in human feces at 2 mg, po single dose; settings: in vivo
[39] = biological target: Butyrylcholinesterase (Rattus norvegicus) (UniProt Q9JKC1); settings: Lister Hooded, Plasma, 3 mg/kg
Butyrylcholinesterase (Rattus norvegicus), sequence (Q9JKC1 as listed by the source): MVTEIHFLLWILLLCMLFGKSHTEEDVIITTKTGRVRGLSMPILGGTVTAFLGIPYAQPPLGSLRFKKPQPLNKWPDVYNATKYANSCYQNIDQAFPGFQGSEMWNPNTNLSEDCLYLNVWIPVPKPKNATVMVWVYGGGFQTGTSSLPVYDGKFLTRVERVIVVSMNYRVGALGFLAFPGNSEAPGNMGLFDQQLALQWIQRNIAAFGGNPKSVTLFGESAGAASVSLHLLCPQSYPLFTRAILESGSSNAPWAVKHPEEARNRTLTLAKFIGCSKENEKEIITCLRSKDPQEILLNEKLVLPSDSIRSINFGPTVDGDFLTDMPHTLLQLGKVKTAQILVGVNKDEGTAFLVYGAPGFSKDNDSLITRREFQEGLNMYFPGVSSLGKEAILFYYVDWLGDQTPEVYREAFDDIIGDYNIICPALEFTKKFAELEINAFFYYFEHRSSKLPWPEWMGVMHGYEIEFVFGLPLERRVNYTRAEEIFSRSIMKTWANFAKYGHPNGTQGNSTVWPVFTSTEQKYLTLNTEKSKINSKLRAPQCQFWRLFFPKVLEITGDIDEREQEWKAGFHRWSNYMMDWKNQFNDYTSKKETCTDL
Description: Inhibition of butyrylcholinesterase activity in 7 months-old Lister Hooded rat plasma at 3 mg/kg, po after 1 hr treatment

[40] = biological target: Butyrylcholinesterase (Rattus norvegicus) (UniProt Q9JKC1); settings: Lister Hooded, 3 mg/kg
Description: Inhibition of butyrylcholinesterase activity in 7 months-old Lister Hooded rat brain at 3 mg/kg, po after 1 hr treatment

[41] = Plasma protein binding in human at 2 mg, po single dose; settings: in vivo
[42] = Drug excretion in human urine at 2 mg, po single dose; settings: in vivo

Structure (SMILES) | AUCt (Rattus norvegicus [1]) | MRT at 1 h [2] | Cmax (in vivo [3]) | Tmax (in vivo [4]) | Cmax (in vivo [5]) | Kp at 1 h [6] | Kp at 1 h (in vivo [7]) | Vd at 1 h [9] | inhibition (Rattus norvegicus [11]) | MRT at 1 h [12] | Cmax at 1 h (in vivo [14]) | bioavailability (in vivo [16]) | bioavailability [17] | AUCt/dose (Rattus norvegicus [18]) | half-life at 1 h [19] | Cmax at 1 h (in vivo [20]) | bioavailability (in vivo [21]) | AUCt/dose (Rattus norvegicus [22]) | AUCt (Rattus norvegicus [25]) | half-life [26] | also measured
COc1cc2c(cc1OC)C(=O)C(CC1CCN(Cc3ccccc3)CC1)C2.Cl (configuration not stated) [DONEPEZIL HYDROCHLORIDE] | 0.76 µM·h | 4.6 h | 180 nM | 1 h | 200 nM | 4.4 | 5.3 | 11.8 L/kg | 92.6% | 3 h | 320 nM | 36% | 100% | 15.9 kg·min/L | 2.5 h | 300 nM | 43% | 16.4 kg·min/L | 0.91 µM·h | 70 h | AUC/dose (Rattus norvegicus [8]): 23.7 kg·min/L; Activity (Rattus norvegicus [10]): 18%; clearance at 1 h (in vivo [13]; blood): 52 mL/min/kg; AUC/dose (Rattus norvegicus [15]): 5.8 kg·min/L; dose excreted [23]: 17%; AUC/dose (Rattus norvegicus [24]): 6.9 kg·min/L; half-life at 1 h [27]: 3.6 h; Vd at 1 h [28]: 9.2 L/kg; Vd (Homo sapiens): 12 L/kg; Tmax (in vivo [29]): 1 h; clearance at 1 h (in vivo [30]; blood): 43 mL/min/kg; Tmax [31]: 3 h; CL/F [32]: 2.17 mL/min/kg
Br.COc1ccc2c3c1O[C@H]1C[C@@H](O)C=C[C@@]31CCN(C)C2 [GALANTAMINE HYDROBROMIDE] | 2.89 µM·h | 1.5 h | 890 nM | 0.5 h | 1330 nM | 1.7 | 2 | 2.9 L/kg | 92.6% | 2 h | 590 nM | 83% | 85% | 20.4 kg·min/L | 1.9 h | 910 nM | 67% | 28.9 kg·min/L | 3.45 µM·h | 5 h | AUC/dose (Rattus norvegicus [8]): 29.9 kg·min/L; clearance at 1 h (in vivo [13]; blood): 41 mL/min/kg; concentration at 1 h [33]: 730 nM; AUC/dose (Rattus norvegicus [15]): 17.4 kg·min/L; AUC/dose (Rattus norvegicus [34]): 22.7 kg·min/L; dose excreted [23]: 32%; concentration at 1 h [35]: 1140 nM; AUC/dose (Rattus norvegicus [24]): 19.3 kg·min/L; concentration at 1 h [36]: 420 nM; half-life at 1 h [27]: 1.2 h; Vd at 1 h [28]: 5 L/kg; Vd (Homo sapiens): 2.9 L/kg; Tmax (in vivo [29]): 0.5 h; clearance at 1 h (in vivo [30]; blood): 34 mL/min/kg; concentration at 1 h [37]: 580 nM; Tmax [31]: 1 h; CL/F [32]: 5.67 mL/min/kg
Cl.Nc1c2c(nc3ccccc13)CCCC2 [TACRINE HYDROCHLORIDE] | 0.7 µM·h | 1.1 h | 360 nM | 0.5 h | 310 nM | 11 | 9.5 | 5.2 L/kg | 92.6% | 0.9 h | 700 nM | 27% | 17% | 10.2 kg·min/L | 0.9 h | 740 nM | 29% | 12.4 kg·min/L | 0.89 µM·h | 2 h | Drug excretion [38]: 23%; clearance at 1 h (in vivo [13]; in vivo): 93 mL/min/kg; inhibition [39]: Active; inhibition [40]: Active; concentration at 1 h [33]: 1240 nM; concentration at 1 h [35]: 1720 nM; concentration at 1 h [36]: 110 nM; fraction unbound [41]: 0.45; half-life at 1 h [27]: 1.1 h; Vd at 1 h [28]: 5.1 L/kg; Drug excretion [42]: 57%; Vd (Homo sapiens): 5.02 L/kg; Tmax (in vivo [29]): 0.5 h; clearance at 1 h (in vivo [30]; in vivo): 77 mL/min/kg; concentration at 1 h [37]: 190 nM; Tmax [31]: 1 h; CL/F [32]: 40.3 mL/min/kg
